In patent US7968554B2, “Pyrazolo[3,4-d]pyrimidine derivatives” (Hoffman-La Roche Inc., priority 2007, dated 2011) one finds IC50 data, which are given here for eight molecules.

The target of the test is T1, b-Raf wild-type (Homo sapiens, UniProt P15056).
T1 construct: recombinant human b-Raf residues 416-end with N-terminal GST-tag; purchased Upstate 14-530M; host or cells: baculovirus, Sf21 insect cells
T1 sequence (P15056 416-766 limits assumed): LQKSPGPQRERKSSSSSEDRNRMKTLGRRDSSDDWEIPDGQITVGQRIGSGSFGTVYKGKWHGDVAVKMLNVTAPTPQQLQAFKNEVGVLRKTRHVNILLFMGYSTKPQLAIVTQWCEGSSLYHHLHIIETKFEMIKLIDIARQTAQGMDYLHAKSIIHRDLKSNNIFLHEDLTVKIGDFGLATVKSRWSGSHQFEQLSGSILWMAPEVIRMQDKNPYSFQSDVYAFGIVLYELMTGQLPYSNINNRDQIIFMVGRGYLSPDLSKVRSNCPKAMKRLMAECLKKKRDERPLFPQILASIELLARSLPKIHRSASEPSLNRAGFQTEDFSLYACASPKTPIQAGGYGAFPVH
In words: b-Raf wild-type HTRF assay with 6H-MEK as substrate (dose response). The class given is biochemical. The settings on record: kinase enzyme inhibition, 6H-MEK substrate, read-out: bRaf wild-type IC50. On the procedure:
Kinase Enzyme Inhibition Assay (IC50)
b-Raf Wild-Type HTRF Assay With 6H-MEK as Substrate (Dose Response)
The assay utilizes 6H-MEK as the substrate. Upon b-Raf WT phosphorylation, phosphorylated 6H-MEK is detected with rabbit anti-phospho-MEK1/2, Eu-labeled anti-rabbit, and APC-labeled anti-6H antibodies.
Reagents and Instruments:
• Enzyme: recombinant human b-Raf residues 416-end with N-terminal GST-tag from Upstate; (expressed by baculovirus in Sf21 insect cells), 0.26 mg/mL (3.87 μM assuming a molecular weight of 67.2 kD) Cat. #14-530M, Lot #25502AU, stored at −80° C. • Substrate: WT full-length 6H-MEK, 4.94 mg/mL (154.4 μM assuming a MW of 32 kD) stored at −15° C. • Antibodies: Rabbit (α-P-(Ser 217/221)-MEK-1/2 Ab (from Cell Signaling, Cat. #9121B, Lot 14); Eu-(α-rabbit IgG (from Wallac, Cat. #AD0083, Lot 318663, 710 ug/mL, 4.4 μM); (α-6H-SureLight-APC (from Martek, Cat. #AD0059H, Lot E012AB01, 3.03 μM). • Reader: Envision from PerkinElmer, HTRF reading mode with 412 mirror • Assay Plate: Matrix all-black polypropylene plates (Cat. #4344) • Others: Weidman 384 polypropylene plates (REMP) for compound plate. Assay Procedure: • (1) Prepare Kinase Assay Buffer (KAB): 50 mM HEPES (HyClone) pH7, 10 mM MgCl2, 1 mM DTT, 0.1 mM […], and 0.3 mg/ml BSA. • (2) Prepare 6H-MEK (150 nM) in KAB. Add 12 μL/well to the assay plate. • (3) Prepare ATP (66 μM) in KAB. • (4) Dilute compounds to 2.4 mM and any positive controls to 480 μM in DMSO. Perform 10-point 3× dilution in DMSO. Withdraw 2.5 μL/well of DMSO solution and add to 27.5 μL/well ATP solution in (3). • (5) Mix, then add 6 μL/well of solution in (4) to the assay plate for a DMSO concentration of 2.1% during MEK phosphorylation. • (6) Prepare b-Raf WT (100 μM) in KAB. • (7) Add 6 μL/well of KAB in columns 1-2 and 6 μL/well of b-Raf WT in columns 3-24. • (8) Incubate at 37° C. for 30 min. • (9) Prepare rabbit (α-P-(Ser 217/221 )-MEK-1/2 Ab (1:200 from stock) in AB1: 50 mM HEPES pH7, 0.2 mg/ml BSA, and 43 mM EDTA. • (10) To stop reaction, add 6 μL/well of solution from (9) to the assay plate and incubate at 37° C. for 30 min. • (11) Prepare Eu-(α-rabbit IgG (9 nM) and (α-6H-SureLight-APC (180 nM) in AB2: 50 mM HEPES pH7 and 0.2 mg/mL BSA. • (12) Add 6 μL/well of solution from (11) to the assay plate. • (13) For determining the spectrum cross talk factor, prepare 2 samples following steps (1) to (10). For the blank sample, add 6 μL/well of AB2. For the cross talk factor sample, add 6 μL/well of Eu-anti rabbit IgG (9 nM). • (14) Incubate at room temperature for 1.5 hours. • (15) Read HTRF signals at 615 nm and 665 nm on the Envision. Normalize HTRF signals after spectrum cross-talk correction. b-Raf V600E Mutant HTRF Assay With 6H-MEK as Substrate (Dose Response) Assay Principle: […]
(TR-FRET usually uses a lanthanide donor and a delayed reading to cut background.)
In general, IC50 refers to the point on the concentration scale where inhibition reaches its midpoint. For the molecule `Cn1nc(COc2cccc(OCc3ccccc3)c2)c2c(N)ncnc21` [Example 7, 3-(3-Benzyloxy-phenoxymethyl)-1-methyl-1H-pyrazolo[3,4-d]pyrimidin-4-ylamine], the IC50 was over 10 µM.

`Cc1ccc(NC(=O)c2ccc(NCCO)c(Cl)c2)cc1OCc1nn(C)c2ncnc(N)c12` [Example 9, N-[3-(4-Amino-1-methyl-1H-pyrazolo[3,4-d]pyrimidin-3-ylmethoxy)-4-methyl-phenyl]-3-chloro-4-(2-hydroxy-ethylamino)-benzamide]: the IC50 was under 10 µM. On to `Cc1ccc(NC(=O)c2cccc(Cl)c2)cc1OCc1nn(C)c2ncnc(N)c12` [Example 11, N-[3-(4-Amino-1-methyl-1H-pyrazolo[3,4-d]pyrimidin-3-ylmethoxy)-4-methyl-phenyl]-3-chloro-benzamide], for which the IC50 was under 10 µM.

Consider `Cc1noc(-c2ccc(C)c(OCc3nn(C)c4ncnc(N)c34)c2)n1` [Example 13, 4-Amino-1-1-methyl-3-[2-methyl-5-(3-methyl-[1,2,4]oxadiazol-5-yl)-phenoxymethyl]-1H-pyrazolo[3,4-d]pyrimidine], for which the IC50 is over 10 µM.

For `Cc1ccc(OCc2ccccc2)cc1OCc1nn(C)c2ncnc(N)c12` [Example 15, 3-(5-Benzyloxy-2-methyl-phenoxymethyl)-1-methyl-1H-pyrazolo[3,4-d]pyrimidin-4-ylamine], the IC50 was under 10 µM. As for `Cc1ccc(C(=O)Nc2ccc(Cl)cc2)cc1OCc1nn(C)c2ncnc(N)c12` [Example 17, 3-(4-Amino-1-methyl-1H-pyrazolo[3,4-d]pyrimidin-3-ylmethoxy)-N-(4-chloro-phenyl)-4-methyl-benzamide], the IC50 is under 10 µM. With `Cc1ccc(OCc2ccc(Cl)cc2)cc1OCc1nn(C)c2ncnc(N)c12` [Example 19, 3-[5-(4-Chloro-benzyloxy)-2-methyl-phenoxymethyl]-1-methyl-1H-pyrazolo[3,4-d]pyrimidin-4-ylamine], the IC50 was under 10 µM.

As for `Cc1nnc(-c2ccc(C)c(OCc3nn(C)c4ncnc(N)c34)c2)o1` [Example 21, 1-Methyl-3-[2-methyl-5-(5-methyl-[1,3,4]oxadiazol-2-yl)-phenoxymethyl]-1H-pyrazolo[3,4-d]pyrimidin-4-ylamine], the half-maximal inhibitory concentration (IC50) was over 10 µM.
